# Test results as given in patent US10919935B2, “Antimicrobial peptide derived from myxinidin peptide and uses thereof” (INDUSTRY-ACADEMIC COOPERATION FOUNDATION, CHOSUN UNIVERSITY, priority 2015, dated 2021).
# Residues, ends and D or L forms follow the SMILES beside them.
# Legend:
# [1] = system: L. monocytogenes; assay: Anti-biofilm activity (crystal violet); assay type: cell-based, Listeria monocytogenes
# Experimental: (§1) To compare the antimicrobial activity of the peptide produced by the method of Example 1, the inventors of the present invention measured the biofilm inhibitory concentration value of the peptide showing no dissociation of bacterial cells.
# (§2) Specifically, the Gram-negative bacteria and Gram-positive bacteria among the bacterial strains described in the above Table 2 were cultured in each medium to a mid-log phase. Then, after dilution to bacterial cell concentration of 5×10^5 cells/100 μl, the cells were inoculated to a microtiter plate (NUNC, USA). Thereafter, myxinidin 1, myxinidin 2, or myxinidin 3 peptides which have been synthesized in Example 1 above was diluted, 1/10 times for each, with physiological saline (PBS) solution in a 96-well plate. After adding the cells to a plate, the cells were cultured for 12 hours at 37° C. After removing the supernatant, the cells were fixed with 100% methanol and reacted for 2 hours with Crystal violet staining solution followed by rinsing for 3 times. Then, after dissolving in 95% ethanol, the absorbance was measured at a wavelength of 595 nm by using a microtiter plate reader (Merck Elisa reader, Germany) to determine the biofilm inhibitory concentration value of each bacterial strain. As a control group, myxinidin as a mother peptide was subjected to the same processes as above and the biofilm inhibitory concentration value of each bacterial strain was obtained.
# [2] = system: L. monocytogenes; assay: MIC at salt concentration (Example 3); assay type: cell-based, Listeria monocytogenes
# Experimental: (§3) To compare the antimicrobial activity of the peptide produced by the method of Example 1, the inventors of the present invention measured the minimum growth inhibitory concentration (MIC), which is minimum concentration of the peptide showing no dissociation of bacterial cells, at salt concentration.
# (§4) Specifically, the bacterial strain described in the above Table 2 was cultured in each medium to a mid-log phase. Then, after dilution to bacterial cell concentration of 2×10^5 cells/100 μl, the cells were inoculated to a microtiter plate (NUNC, USA). Thereafter, myxinidin 1, myxinidin 2, or myxinidin 3 peptides which have been synthesized in Example 1 above was diluted, 1/2 times for each, with BSA+150 mM sodium chloride (NaCl) solution, physiological saline (PBS) solution, or 10 mM sodium phosphate (SP) solution in a 96-well plate. After adding the cells to a plate, the cells were cultured for 12 hours at 37° C. By using a microtiter plate reader (Merck Elisa reader, Germany), the absorbance was measured at a wavelength of 600 nm to determine the MIC value of each bacterial strain. As a control group, myxinidin as a mother peptide was subjected to the same processes as above and the MIC value of each bacterial strain was obtained.
# [3] = in vitro; assay type: cell-based; conditions: human, NHK cells (normal human keratinocytes)
# Experimental: To determine the cytotoxicity of the peptide produced by the method of Example 1 in normal cell line, toxicity was measured by using NHK cells (Normal Human Keratinocyte cells).
# Specifically, NHK cells which have been cultured in Epilife medium with 60 μM calcium (Gibco, USA) containing 10% HKGS (Human Keratinocyte Growth Supplement) (Gibco, USA) were aliquoted in a 96-well plate to have 1×10^4 cells per well. After culturing them for 24 hours, the cells were subjected to a treatment with myxinidin, myxinidin 1, myxinidin 2, or myxinidin 3 peptide, each at concentration of 3.125, 6.25, 12.5, or 25.0 μM/well, followed by reaction for 24 hours in a 5% CO2 incubator. After the culture, a reaction solution containing 5 mg/ml MTT (Thiazolyl Blue Tetrazolium Bromide) dissolved in physiological saline (PBS) was added in an amount of 20 μl to each well and allowed to react for 4 hours. After that, the supernatant was removed, and, by dissolving MTT crystals that are formed by adding 200 μl of DMSO, the absorbance at 560 nm was measured to determine the cell survival ability.
# [4] = system: S. typhimurium; assay: MIC at salt concentration (Example 3); assay type: cell-based, Salmonella typhimurium
# Experimental: as §3, §4
# [5] = system: S. typhimurium 8013; assay: MIC at salt concentration (Example 3); assay type: cell-based, Salmonella typhimurium
# Experimental: as §3, §4
# [6] = system: S. typhimurium 8009; assay: MIC at salt concentration (Example 3); assay type: cell-based, Salmonella typhimurium
# Experimental: as §3, §4
# [7] = system: Escherichia coli 1229; assay: MIC at salt concentration (Example 3); assay type: cell-based
# Experimental: as §3, §4
# [8] = system: Escherichia coli; assay: MIC at salt concentration (Example 3); assay type: cell-based
# Experimental: as §3, §4
# [9] = system: Escherichia coli 1238; assay: MIC at salt concentration (Example 3); assay type: cell-based
# Experimental: as §3, §4
# [10] = system: S. aureus; assay: MIC at salt concentration (Example 3); assay type: cell-based, Staphylococcus aureus
# Experimental: as §3, §4
# [11] = system: S. aureus 3114; assay: MIC at salt concentration (Example 3); assay type: cell-based, Staphylococcus aureus
# Experimental: as §3, §4
# [12] = system: S. aureus 3709; assay: MIC at salt concentration (Example 3); assay type: cell-based, Staphylococcus aureus
# Experimental: as §3, §4
# [13] = system: P. aeruginosa 3592; assay: MIC at salt concentration (Example 3); assay type: cell-based, Pseudomonas aeruginosa
# Experimental: as §3, §4
# [14] = system: P. aeruginosa; assay: MIC at salt concentration (Example 3); assay type: cell-based, Pseudomonas aeruginosa
# Experimental: as §3, §4
# [15] = system: P. aeruginosa 5018; assay: MIC at salt concentration (Example 3); assay type: cell-based, Pseudomonas aeruginosa
# Experimental: as §3, §4
# [16] = system: S. aureus; assay: Anti-biofilm activity (crystal violet); assay type: cell-based, Staphylococcus aureus
# Experimental: as §1, §2
# [17] = NaCl (BSA+150 mM sodium chloride)
structure (smiles),measurement,setting,value
"CC[C@H](C)[C@H](NC(=O)[C@H](Cc1c[nH]c2ccccc12)NC(=O)[C@H](CCCCN)NC(=O)[C@@H](NC(=O)[C@@H](N)CCCCN)[C@@H](C)CC)C(=O)N[C@@H](CC(C)C)C(=O)N[C@@H](CCCCN)C(=O)N[C@@H](Cc1ccc(O)cc1)C(=O)N[C@@H](Cc1c[nH]c2ccccc12)C(=O)N[C@@H](CCCCN)C(=O)N[C@@H](Cc1c[nH]c2ccccc12)C(=O)N[C@@H](CO)C(N)=O [Myxinidin 2, KIKWILKYWKWS-NH2] (H-KIKWILKYWKWS-NH2; N-terminus assumed)",Biofilm forming ability,[1]; peptide 0.25 μM,100%
same,Biofilm forming ability,[1]; peptide 0.5 μM,100%
same,Biofilm forming ability,[1]; peptide 1 μM,100%
same,Biofilm forming ability,[1]; peptide 2 μM,100%
same,Biofilm forming ability,[1]; peptide 4 μM,99%
same,Biofilm forming ability,[1]; peptide 8 μM,93%
same,Biofilm forming ability,[1]; peptide 16 μM,45%
same,Biofilm forming ability,[1]; peptide 32 μM,33%
same,Antimicrobial activity (MIC) according to salt concentration,[2]; [17],4
same,Antimicrobial activity (MIC) according to salt concentration,[2]; PBS,8
same,Antimicrobial activity (MIC) according to salt concentration,[2]; SP (10 mM sodium phosphate),8
same,"viability at 24 h, 3.125 µM",[3],100%
same,"viability at 24 h, 6.25 µM",[3],100%
same,"viability at 24 h, 12.5 µM",[3],98%
same,"viability at 24 h, 25 µM",[3],75%
same,Antimicrobial activity (MIC) according to salt concentration,[4]; [17],2
same,Antimicrobial activity (MIC) according to salt concentration,[4]; PBS,4
same,Antimicrobial activity (MIC) according to salt concentration,[4]; SP (10 mM sodium phosphate),2
same,Antimicrobial activity (MIC) according to salt concentration,[5]; [17],32
same,Antimicrobial activity (MIC) according to salt concentration,[5]; PBS,8
same,Antimicrobial activity (MIC) according to salt concentration,[5]; SP (10 mM sodium phosphate),4
same,Antimicrobial activity (MIC) according to salt concentration,[6]; [17],8
same,Antimicrobial activity (MIC) according to salt concentration,[6]; PBS,4
same,Antimicrobial activity (MIC) according to salt concentration,[6]; SP (10 mM sodium phosphate),4
same,Antimicrobial activity (MIC) according to salt concentration,[7]; [17],8
same,Antimicrobial activity (MIC) according to salt concentration,[7]; PBS,2
same,Antimicrobial activity (MIC) according to salt concentration,[7]; SP (10 mM sodium phosphate),2
same,Antimicrobial activity (MIC) according to salt concentration,[8]; [17],8
same,Antimicrobial activity (MIC) according to salt concentration,[8]; PBS,4
same,Antimicrobial activity (MIC) according to salt concentration,[8]; SP (10 mM sodium phosphate),2
same,Antimicrobial activity (MIC) according to salt concentration,[9]; [17],8
same,Antimicrobial activity (MIC) according to salt concentration,[9]; PBS,2
same,Antimicrobial activity (MIC) according to salt concentration,[9]; SP (10 mM sodium phosphate),4
same,Antimicrobial activity (MIC) according to salt concentration,[10]; [17],0.25
same,Antimicrobial activity (MIC) according to salt concentration,[10]; PBS,1
same,Antimicrobial activity (MIC) according to salt concentration,[10]; SP (10 mM sodium phosphate),1
same,Antimicrobial activity (MIC) according to salt concentration,[11]; [17],>32
same,Antimicrobial activity (MIC) according to salt concentration,[11]; PBS,16
same,Antimicrobial activity (MIC) according to salt concentration,[11]; SP (10 mM sodium phosphate),8
same,Antimicrobial activity (MIC) according to salt concentration,[12]; [17],8
same,Antimicrobial activity (MIC) according to salt concentration,[12]; PBS,8
same,Antimicrobial activity (MIC) according to salt concentration,[12]; SP (10 mM sodium phosphate),4
same,Antimicrobial activity (MIC) according to salt concentration,[13]; [17],16
same,Antimicrobial activity (MIC) according to salt concentration,[13]; PBS,8
same,Antimicrobial activity (MIC) according to salt concentration,[13]; SP (10 mM sodium phosphate),8
same,Antimicrobial activity (MIC) according to salt concentration,[14]; [17],8
same,Antimicrobial activity (MIC) according to salt concentration,[14]; PBS,4
same,Antimicrobial activity (MIC) according to salt concentration,[14]; SP (10 mM sodium phosphate),8
same,Antimicrobial activity (MIC) according to salt concentration,[15]; [17],16
same,Antimicrobial activity (MIC) according to salt concentration,[15]; PBS,4
same,Antimicrobial activity (MIC) according to salt concentration,[15]; SP (10 mM sodium phosphate),2
same,Biofilm forming ability,[16]; peptide 0.25 μM,100%
same,Biofilm forming ability,[16]; peptide 0.5 μM,97%
same,Biofilm forming ability,[16]; peptide 1 μM,97%
same,Biofilm forming ability,[16]; peptide 2 μM,97%
same,Biofilm forming ability,[16]; peptide 4 μM,93%
same,Biofilm forming ability,[16]; peptide 8 μM,89%
same,Biofilm forming ability,[16]; peptide 16 μM,24%
same,Biofilm forming ability,[16]; peptide 32 μM,15%
